Results from patent publication US11731946B2, “Broad spectrum antivirulence, anti-persistence compounds” (priority 2017, dated 2023).

Test system: PA14
Assay: Mouse thigh infection model (PA14)
Type: in vivo, mice
Settings: 10 mg/kg SC; CFUs 24 h post-infection
Protocol: Mice were infected with 5×10^5 and 5×10^6 PA14 cells for the thigh and lung infection model respectively. FIGS. 5A-5C: Thigh model: treatment was initiated […] and repeated at 4, 8, 12 and 18 hours. FIG. 5A: monotherapy with Compound 72, 10 mg/kg (P<0.05 Mann Whitney test); FIG. 5B-5C. Combinatorial: Compound 72 (10 mg/kg) plus Ciprofloxacin 1 mg/kg (subtherapeutic dose) (FIG. 5B: P<0.05; Figure C: P>0.05; Mann Whitney test). CFUs were assessed 24 h post-infection in the thigh (FIG. 5A), liver (FIG. 5B) and spleen (FIG. 5C). Compound 72 was administered subcutaneously and ciprofloxacin intraperitoneally (IP). […] Mice were infected with 5×10^6 PA14 cells lung infection model. Compound 54 (10 mg/kg) plus ciprofloxacin 1 mg/kg treatment (subtherapeutic dose) was initiated at 2 h post-infection and repeated at 6, 12, and 18 h post-infection. CFUs were assessed 24 h post-infection in the lung. Compound 54 was administered subcutaneously and ciprofloxacin intraperitoneally (IP).
Thigh infection studies were performed using Compounds 54 and 72.

**Q.** `N#Cc1ccc(NC(=O)CC(=O)Nc2ccc(Br)cc2)cc1` [Compound 54] was tested. Which “bacterial CFUs at the site of infection” value did it give?
**A.** reduced bacterial CFUs
